What was measured:
Type in all cases: in vivo
[1] = test system: upland rice (Oryza sp., var. Tebonnet, RICE); assay: Pre-emerge test, crop safety; conditions: pre-emerge, 14 days after application, scale 0-100
Procedure, shortened: (§1)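 Compounds in acetone were track-sprayed at 15-1000 g ai/ha (187 l/ha) on sandy loam pots: pre-emerge one day after seeding, post-emerge at 2-3 leaf stage with 0.25% v/v non-ionic surfactant. Phytotoxicity was rated 14 days later on a 0 (no damage) to 100 (complete death) scale.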

[2] = test system: field corn (Zea mays L., var. Dekalb 535, CORN); assay: Pre-emerge test, crop safety; conditions: pre-emerge, 14 days after application, scale 0-100
Procedure, shortened: as §1

[3] = test system: sicklepod (Cassia obtusifolia, CASOB); assay: Post-emerge test, greenhouse herbicide activity screening; conditions: post-emerge, 14 days after application, rating scale 0-100
Procedure, shortened: (§2)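 Sandy loam pots; pre-emerge: sown 1 d pre-spray, surface-watered after, then bottom-watered. Post-emerge: sown 8–21 d before, 2–3 leaf stage, + 0.25% v/v NIS, bottom-watered. Acetone, 187 l/ha track spray, 15–1000 g ai/ha. 0–100 injury score, day 14.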

[4] = test system: large crabgrass (Digitaria sanguinalis, DIGSA); assay: as above; conditions: post-emerge, 14 days after application, rating scale 0-100
Procedure, shortened: as §2

[5] = test system: lambsquarters (Chenopodium album, CHEAL); assay: as above; conditions: post-emerge, 14 days after application, rating scale 0-100
Procedure, shortened: as §2

[6] = test system: johnsongrass (Sorghum halepense, SORHA); assay: as above; conditions: post-emerge, 14 days after application, rating scale 0-100
Procedure, shortened: as §2

[7] = test system: velvetleaf (Abutilon theophrasti, ABUTH); assay: as above; conditions: post-emerge, 14 days after application, rating scale 0-100
Procedure, shortened: as §2

[8] = test system: green foxtail (Setaria viridis, SETVI); assay: as above; conditions: post-emerge, 14 days after application, rating scale 0-100
Procedure, shortened: as §2

[9] = test system: barnyardgrass (Echinochloa crus-galli, ECHCG); assay: as above; conditions: post-emerge, 14 days after application, rating scale 0-100
Procedure, shortened: as §2

[10] = test system: redroot pigweed (Amaranthus retroflexus, AMARE); assay: as above; conditions: post-emerge, 14 days after application, rating scale 0-100
Procedure, shortened: as §2

[11] = test system: ivyleaf morningglory (Ipomoea hederacea, IPOHE); assay: as above; conditions: post-emerge, 14 days after application, rating scale 0-100
Procedure, shortened: as §2

[12] = test system: upland rice (Oryza sp., var. Tebonnet, RICE); assay: Post-emerge test, crop safety; conditions: post-emerge, 14 days after application, rating scale 0-100
Procedure, shortened: (§3)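 Applied at 15–1000 g ai/ha from acetone in 187 l/ha spray volume. Post-emergence applications included 0.25% v/v non-ionic surfactant and reached plants sown 8–21 days before. Pre-emergence applications were incorporated by surface watering. Efficacy or crop damage was rated on a 0–100 scale after 14 days.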

[13] = test system: field corn (Zea mays L., var. Dekalb 535, CORN); assay: Post-emerge test, crop safety; conditions: post-emerge, 14 days after application, rating scale 0-100
Procedure, shortened: as §3

[14] = test system: redroot pigweed (Amaranthus retroflexus, AMARE); assay: Pre-emerge test, greenhouse herbicide activity screening; conditions: pre-emerge, 14 days after application, scale 0-100
Procedure, shortened: as §1

[15] = test system: sicklepod (Cassia obtusifolia, CASOB); assay: as above; conditions: pre-emerge, 14 days after application, scale 0-100
Procedure, shortened: as §3

[16] = test system: large crabgrass (Digitaria sanguinalis, DIGSA); assay: as above; conditions: pre-emerge, 14 days after application, scale 0-100
Procedure, shortened: as §3

[17] = test system: lambsquarters (Chenopodium album, CHEAL); assay: as above; conditions: pre-emerge, 14 days after application, scale 0-100
Procedure, shortened: as §3

[18] = test system: velvetleaf (Abutilon theophrasti, ABUTH); assay: as above; conditions: pre-emerge, 14 days after application, scale 0-100
Procedure, shortened: as §3

[19] = test system: green foxtail (Setaria viridis, SETVI); assay: as above; conditions: pre-emerge, 14 days after application, scale 0-100
Procedure, shortened: as §3

[20] = test system: barnyardgrass (Echinochloa crus-galli, ECHCG); assay: as above; conditions: pre-emerge, 14 days after application, scale 0-100
Procedure, shortened: as §3

[21] = test system: ivyleaf morningglory (Ipomoea hederacea, IPOHE); assay: as above; conditions: pre-emerge, 14 days after application, scale 0-100
Procedure, shortened: as §3

COc1c(Cl)cc(F)c(-n2c(=O)cc(C(F)(F)F)n(C)c2=O)c1NC(=O)C=Cc1ccccc1[N+](=O)[O-] [2-126]
phytotoxicity rating RICE (crop damage) ([1]; 63 g ai/ha): 10 | phytotoxicity rating RICE (crop damage) ([1]; 250 g ai/ha): 60 | phytotoxicity rating CORN (crop damage) ([2]; 63 g ai/ha): 0 | phytotoxicity rating CORN (crop damage) ([2]; 250 g ai/ha): 5 | CASOB phytotoxicity rating ([3]; 63 g ai/ha): 60 | CASOB phytotoxicity rating ([3]; 250 g ai/ha): 60 | DIGSA phytotoxicity rating ([4]; 63 g ai/ha): 20 | DIGSA phytotoxicity rating ([4]; 250 g ai/ha): 30 | CHEAL phytotoxicity rating ([5]; 63 g ai/ha): 80 | CHEAL phytotoxicity rating ([5]; 250 g ai/ha): 95 | SORHA phytotoxicity rating ([6]; 63 g ai/ha): 0 | SORHA phytotoxicity rating ([6]; 250 g ai/ha): 10 | ABUTH phytotoxicity rating ([7]; 63 g ai/ha): 90 | ABUTH phytotoxicity rating ([7]; 250 g ai/ha): 100 | SETVI phytotoxicity rating ([8]; 63 g ai/ha): 30 | SETVI phytotoxicity rating ([8]; 250 g ai/ha): 40 | ECHCG phytotoxicity rating ([9]; 63 g ai/ha): 0 | ECHCG phytotoxicity rating ([9]; 250 g ai/ha): 10 | AMARE phytotoxicity rating ([10]; 63 g ai/ha): 80 | AMARE phytotoxicity rating ([10]; 250 g ai/ha): 100 | IPOHE phytotoxicity rating ([11]; 63 g ai/ha): 80 | IPOHE phytotoxicity rating ([11]; 250 g ai/ha): 100 | RICE phytotoxicity rating (crop damage) ([12]; 63 g ai/ha): 0 | RICE phytotoxicity rating (crop damage) ([12]; 250 g ai/ha): 50 | CORN phytotoxicity rating (crop damage) ([13]; 63 g ai/ha): 10 | CORN phytotoxicity rating (crop damage) ([13]; 250 g ai/ha): 10 | phytotoxicity rating AMARE ([14]; 63 g ai/ha): 100 | phytotoxicity rating AMARE ([14]; 250 g ai/ha): 100 | phytotoxicity rating CASOB ([15]; 63 g ai/ha): 10 | phytotoxicity rating CASOB ([15]; 250 g ai/ha): 70 | phytotoxicity rating DIGSA ([16]; 63 g ai/ha): 30 | phytotoxicity rating DIGSA ([16]; 250 g ai/ha): 90 | phytotoxicity rating CHEAL ([17]; 63 g ai/ha): 100 | phytotoxicity rating CHEAL ([17]; 250 g ai/ha): 100 | phytotoxicity rating ABUTH ([18]; 63 g ai/ha): 100 | phytotoxicity rating ABUTH ([18]; 250 g ai/ha): 100 | phytotoxicity rating SETVI ([19]; 63 g ai/ha): 40 | phytotoxicity rating SETVI ([19]; 250 g ai/ha): 100 | phytotoxicity rating ECHCG ([20]; 63 g ai/ha): 10 | phytotoxicity rating ECHCG ([20]; 250 g ai/ha): 40 | phytotoxicity rating IPOHE ([21]; 63 g ai/ha): 10 | phytotoxicity rating IPOHE ([21]; 250 g ai/ha): 90
